Assay results as given in US20250290117A1, “MOLECULAR PHENOTYPIC ANTIMICROBIAL SUSCEPTIBILITY TESTING” (priority 2024, published 2025).

Tests used:
[1] = system: pathogens of clinical samples; assay: Molecular phenotypic antimicrobial susceptibility test of clinical samples, extraction DNA purification step prior to PCR (Table 6); format: cell-based
Protocol: (§1) Detection of Molecular Phenotypic Antimicrobial Susceptibility. Disclosed herein are the methods for the detection of phenotypic antimicrobial susceptibility via molecular methods. The present invention describes how a specimen 100 with a known microbial load is incubated and then exposed to a panel of antimicrobial agents to determine sensitivity (prevention of growth) or resistance (allowance of growth) to the specific antimicrobial agents tested utilizing molecular methods.
Sample Collection. Specimens 100 are collected from patients using sterile collection processes that are employed in routine clinical care. Specimens are transported to the testing facility in boric acid preservative.
Preparation of the Specimens for Testing. […] The process for pathogen isolation includes steps of harvesting the pathogen (e.g., via centrifugation), isolating pathogen DNA via a DNA isolation and/or purification kit, and performing PCR on the pathogen DNA via PCR components (e.g., primers, enzymes, buffers) as would be known to the skilled artisan. […] This aliquot is used for antimicrobial susceptibility testing if indicated based on the pathogen detection results. […] Specimens 100 with lower pathogen loads could also be utilized in the antibiotic susceptibility phase of testing with or without a longer incubation period.
(§2) Preparation of Antimicrobial Susceptibility Testing Plates. Antimicrobial solutions are prepared at known concentrations. The specific antimicrobials and their concentrations are selected based on the pathogen of interest and the described antimicrobial resistance breakpoints for that specimen pathogen and antimicrobial combination. These antimicrobials have been selected based on those commonly utilized by healthcare providers in routine clinical care for the specific type of suspected infection. The number and types of antimicrobials utilized can be customized based on the infection source, pathogen detected, patient-specific factors such as allergies or other health conditions (e.g., chronic kidney disease or concurrent medication use), or healthcare provider preferences such as antimicrobial availability or cost.
The antimicrobial solutions are prepared in liquid culture media (such as Muller Hinton Broth) to achieve the desired antimicrobial concentration and are then stored at −80° C. until use. For a given specimen, each antimicrobial is tested at a single or multiple antimicrobial concentration(s) which is its established breakpoints for sensitivity. The antimicrobial solutions are prepared and plated out for each specific pathogen. […] This allows for evaluation of pathogen load when no antimicrobial is present.
Specimen Exposure to Antimicrobial Agents. The 1 mL aliquot of the specimen 100 previously mixed with culture media and incubated is obtained. Using optical density measurements as a guide, the specimen 100 is diluted to 0.5 McFarland.
Antimicrobial exposure plates are typically placed into an incubator for 12-16 hours.
Nucleic Acid Amplification of Antimicrobial Agent Exposed Pathogens. The antimicrobial exposure plate is removed after the period of incubation. The specimen then undergoes a purification or lysis step. For example, the specimen may undergo a purification step (e.g., magnetic bead-based or other separation protocol to isolate genetic material). In another example, the specimen may undergo a cell lysis step. For example, buffer (e.g., lysis buffer) may be added and incubated in the thermal cycler for preparation for direct PCR. Next, the specimen may undergo a polymerase chain reaction (PCR) testing protocol, whereby a semi-quantitative PCR method is utilized. This may be completed either with or without a specific extraction protocol step. The pathogens can be individually targeted and detected, or a universal genetic sequence can be utilized to detect the antimicrobial susceptibility of the specimen as a whole.

E. coli = assay: Molecular phenotypic antimicrobial susceptibility test, specimen with two detected pathogens incubated together without isolation; format: cell-based, Escherichia coli; conditions: E. coli in specimen with two detected pathogens (E. coli and M. morganii) incubated together; for Ct of Sensitive Breakpoint: Ct of controls (average) 15.93; for Molecular Antimicrobial Susceptibility Result: at sensitive breakpoint
Protocol: as §1
Sample Collection. Specimens 100 are collected from patients using sterile collection processes that are employed in routine clinical care. Specimens are transported to the testing facility in boric acid preservative. Specimens 100 are subsequently divided into a first sample 104 and a second sample 108.
Preparation of the Specimens for Testing. The specimens 100 are put through a pathogen identification process using PCR technology (e.g., using the first sample 104). The process for pathogen isolation includes steps of harvesting the pathogen (e.g., via centrifugation), isolating pathogen DNA via a DNA isolation and/or purification kit, and performing PCR on the pathogen DNA via PCR components (e.g., primers, enzymes, buffers) as would be known to the skilled artisan. Simultaneously, an additional aliquot of the same specimen (e.g., the second sample 108) is placed with liquid culture media and incubated for 4-6 hours. This aliquot is used for antimicrobial susceptibility testing if indicated based on the pathogen detection results. After pathogen identification is completed and if more than 10,000 cells/mL of bacteria (e.g., eligible bacteria) are detected in the source specimen, the second sample 108 then enters the antimicrobial susceptibility phase of testing. Specimens 100 with lower pathogen loads could also be utilized in the antibiotic susceptibility phase of testing with or without a longer incubation period.
as §2
The antimicrobial solutions are prepared in liquid culture media (such as Muller Hinton Broth) to achieve the desired antimicrobial concentration and are then stored at −80° C. until use. For a given specimen, each antimicrobial is tested at a single or multiple antimicrobial concentration(s) which is its established breakpoints for sensitivity. The antimicrobial solutions are prepared and plated out for each specific pathogen. This allows ease of use on the day of testing after defrosting the plate 112. Table 1, which illustrates the results of molecular phenotypic antimicrobial susceptibility testing when more than one organism is present in the source specimen, provides an example of an antimicrobial plate 112 prepared for this purpose. Of note, control wells containing only culture media are present on all plates 112. This allows for evaluation of pathogen load when no antimicrobial is present.
Specimen Exposure to Antimicrobial Agents. The 1 mL aliquot of the specimen 100 previously mixed with culture media and incubated is obtained. Using optical density measurements as a guide, the specimen 100 is diluted to 0.5 McFarland. […]

[2] = E. coli, clinical sample of r10-r24
[3] = E. coli, clinical sample of r10-r24, Ct Control Avg 18.112
[4] = E. coli, clinical sample of r158-r172
[5] = E. coli, clinical sample of r158-r172, Ct Control Avg 20.146
[6] = K. aerogenes, clinical sample of r136-r150
[7] = K. aerogenes, clinical sample of r136-r150, Ct Control Avg 19.994
[8] = K. pneumoniae, clinical sample of r121-r135
[9] = K. pneumoniae, clinical sample of r121-r135, Ct Control Avg 24.272
[10] = M. morganii, clinical sample of r55-r69
[11] = M. morganii, clinical sample of r55-r69, Ct Control Avg 28.86
[12] = M. morganii, clinical sample of r70-r84
[13] = P. mirabilis, clinical sample of r25-r39
[14] = P. mirabilis, clinical sample of r25-r39, Ct Control Avg 26.064
[15] = P. mirabilis, clinical sample of r40-r54
[16] = P. mirabilis, clinical sample of r40-r54, Ct Control Avg 26.987

| SMILES | Molecular Antibiotic Susceptibility Result [1, 2] | Ct [1, 3] | Molecular Antibiotic Susceptibility Result [1, 4] | Ct [1, 5] | Molecular Antibiotic Susceptibility Result [1, 6] | Ct [1, 7] | Molecular Antibiotic Susceptibility Result [1, 8] | Ct [1, 9] | Molecular Antibiotic Susceptibility Result [1, 10] | Ct [1, 11] | Molecular Antibiotic Susceptibility Result [1, 12] | Molecular Antibiotic Susceptibility Result [1, 13] | Ct [1, 14] | Molecular Antibiotic Susceptibility Result [1, 15] | Ct [1, 16] | Ct of Sensitive Breakpoint (E. coli) | Molecular Antimicrobial Susceptibility Result (E. coli) | other results |
| --- | --- | --- | --- | --- | --- | --- | --- | --- | --- | --- | --- | --- | --- | --- | --- | --- | --- | --- |
| CN(C)[C@@H]1C(O)=C(C(N)=O)C(=O)[C@@]2(O)C(O)=C3C(=O)c4c(O)cccc4[C@@](C)(O)[C@H]3C[C@@H]12 [Tetracycline] | Sensitive (Antimicrobial wells with pathogen load detected below the control wells (typically >2 cycle thresholds later) may be reported as Sensitive) | 28.574 | Sensitive (Antimicrobial wells with pathogen load detected below the control wells (typically >2 cycle thresholds later) may be reported as Sensitive) | 34.28 | Sensitive (Antimicrobial wells with pathogen load detected below the control wells (typically >2 cycle thresholds later) may be reported as Sensitive) | 37.04 | Sensitive (Antimicrobial wells with pathogen load detected below the control wells (typically >2 cycle thresholds later) may be reported as Sensitive) | 30.426 | Resistant | 26.617 | Sensitive (Antimicrobial wells with pathogen load detected below the control wells (typically >2 cycle thresholds later) may be reported as Sensitive) | Resistant | 24.94 | Resistant | 23.424 | 14.55 | Resistant | Molecular Antibiotic Susceptibility Result ([1]; E. faecalis, clinical sample of r93-r99): Resistant; Ct ([1]; E. faecalis, clinical sample of r93-r99, Ct Control Avg 22.987): 19.484; Molecular Antibiotic Susceptibility Result ([1]; E. faecalis, clinical sample of r100-r106): Resistant; Ct ([1]; E. faecalis, clinical sample of r100-r106, Ct Control Avg 23.073): 23.171; Ct ([1]; E. faecalis, clinical sample of r107-r113, Ct Control Avg 22.144): 28.949; Molecular Antibiotic Susceptibility Result ([1]; E. faecalis, clinical sample of r114-r120): Resistant; Ct ([1]; E. faecalis, clinical sample of r114-r120, Ct Control Avg 20.822): 21.77; Ct ([1]; E. faecalis, clinical sample of r151-r157, Ct Control Avg 20.56): 23.723; Molecular Antibiotic Susceptibility Result ([1]; S. aureus, clinical sample of r85-r92): Resistant; Ct ([1]; S. aureus, clinical sample of r85-r92, Ct Control Avg 24.32): 15.029 |
| C[C@@H](O)[C@H]1C(=O)N2C(C(=O)O)=C(S[C@@H]3CN[C@H](C(=O)N(C)C)C3)[C@H](C)[C@H]12 [Meropenem] | Sensitive (Antimicrobial wells with pathogen load detected below the control wells (typically >2 cycle thresholds later) may be reported as Sensitive) | 27.07 | Sensitive (Antimicrobial wells with pathogen load detected below the control wells (typically >2 cycle thresholds later) may be reported as Sensitive) | 30.723 | Sensitive (Antimicrobial wells with pathogen load detected below the control wells (typically >2 cycle thresholds later) may be reported as Sensitive) | 33.144 | Sensitive (Antimicrobial wells with pathogen load detected below the control wells (typically >2 cycle thresholds later) may be reported as Sensitive) | 31.816 | Sensitive (Antimicrobial wells with pathogen load detected below the control wells (typically >2 cycle thresholds later) may be reported as Sensitive) | 37.898 | Sensitive (Antimicrobial wells with pathogen load detected below the control wells (typically >2 cycle thresholds later) may be reported as Sensitive) | Sensitive (Antimicrobial wells with pathogen load detected below the control wells (typically >2 cycle thresholds later) may be reported as Sensitive) | 34.223 | Sensitive (Antimicrobial wells with pathogen load detected below the control wells (typically >2 cycle thresholds later) may be reported as Sensitive) | 35.503 | 25.70 | Sensitive (Antimicrobial wells with pathogen load detected below the control wells (typically >2 cycle thresholds later) may be reported as Sensitive) | Ct ([1]; M. morganii, clinical sample of r70-r84, Ct Control Avg 27.053): 36.672 |
